Data reported in patent US7410963B2, “Benzo-1,4-diazepin-2-one derivatives as phosphodiesterase PDE2 inhibitors, preparation and therapeutic use thereof” (VIA Pharmaceuticals, Inc., priority 2003, dated 2008).
Like-named read-outs stand apart in the source and are kept apart here.

Molecular target: T1, PDE2 (Bos taurus, UniProt P14099)
T1 sequence (P14099 1-921): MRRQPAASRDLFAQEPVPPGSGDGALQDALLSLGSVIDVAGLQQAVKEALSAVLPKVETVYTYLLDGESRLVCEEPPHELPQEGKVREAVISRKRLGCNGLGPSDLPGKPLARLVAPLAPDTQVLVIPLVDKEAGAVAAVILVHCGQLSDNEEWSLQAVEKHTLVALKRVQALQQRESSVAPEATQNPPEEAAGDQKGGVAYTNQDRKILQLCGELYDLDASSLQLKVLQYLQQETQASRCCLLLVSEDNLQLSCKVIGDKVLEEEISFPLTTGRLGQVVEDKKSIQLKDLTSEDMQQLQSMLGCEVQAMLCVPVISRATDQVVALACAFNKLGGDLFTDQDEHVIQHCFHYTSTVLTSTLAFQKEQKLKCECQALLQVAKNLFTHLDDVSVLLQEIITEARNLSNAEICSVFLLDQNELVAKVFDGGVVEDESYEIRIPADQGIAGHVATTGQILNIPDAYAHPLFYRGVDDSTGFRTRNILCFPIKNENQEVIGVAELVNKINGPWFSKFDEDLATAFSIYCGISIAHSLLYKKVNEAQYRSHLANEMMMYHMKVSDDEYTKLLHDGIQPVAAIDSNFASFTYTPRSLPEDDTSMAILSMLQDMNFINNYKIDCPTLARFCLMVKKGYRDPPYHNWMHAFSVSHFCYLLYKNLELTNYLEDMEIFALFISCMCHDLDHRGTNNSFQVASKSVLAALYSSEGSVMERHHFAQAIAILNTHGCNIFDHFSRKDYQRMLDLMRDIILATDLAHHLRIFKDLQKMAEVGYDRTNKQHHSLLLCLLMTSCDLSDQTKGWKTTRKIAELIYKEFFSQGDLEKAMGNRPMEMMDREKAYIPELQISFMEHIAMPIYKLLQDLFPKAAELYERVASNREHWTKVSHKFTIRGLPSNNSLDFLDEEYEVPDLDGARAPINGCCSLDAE
Test: Radioenzymatic phosphodiesterase assay: PDE2 inhibition
Assay type: biochemical, bovine
Details: read-out: PDE2 percentage of inhibition at 10 μM
Method: Nucleoside radioactivity was determined by liquid scintillation.

## COc1cc2c(cc1-c1ccccc1)C(c1cccc(C#N)c1)=NCC(=O)N2C [Example 1, 3-(8-Methoxy-1-methyl-2-oxo-7-phenyl-2,3-dihydro-1H-benzo[e][1,4]diazepin-5-yl)-benzonitrile]
  inhibition at 10 µM: 83%

## COc1cc2c(cc1-c1ccc(F)cc1)C(c1cccc(C#N)c1)=NCC(=O)N2C [Example 2, 3-[7-(4-Fluoro-phenyl)-8-methoxy-1-methyl-2-oxo-2,3-dihydro-1H-benzo[e][1,4]diazepin-5-yl]-benzonitrile]
  inhibition at 10 µM: 97%

## COc1ccccc1-c1cc2c(cc1OC)N(C)C(=O)CN=C2c1cccc(C#N)c1 [Example 3, 3-[8-Methoxy-7-(2-methoxy-phenyl)-1-methyl-2-oxo-2,3-dihydro-1H-benzo[e][1,4]diazepin-5-yl]-benzonitrile]
  inhibition at 10 µM: 100%

## COc1ccc(-c2cc3c(cc2OC)N(C)C(=O)CN=C3c2cccc(C#N)c2)cc1 [Example 4, 3-[8-Methoxy-7-(4-methoxy-phenyl)-1-methyl-2-oxo-2,3-dihydro-1H-benzo[e][1,4]diazepin-5-yl]-benzonitrile]
Table 1, 10 μM test compound
  inhibition at 10 µM: 97%

## COc1cc2c(cc1-c1ccccc1Cl)C(c1cccc(C#N)c1)=NCC(=O)N2C [Example 5, 3-[7-(2-Chloro-phenyl)-8-methoxy-1-methyl-2-oxo-2,3-dihydro-1H-benzo[e][1,4]diazepin-5-yl]-benzonitrile]
Table 1, 10 μM test compound
  inhibition at 10 µM: 98%

## COc1cc2c(cc1-c1cccc(Cl)c1)C(c1cccc(C#N)c1)=NCC(=O)N2C [Example 6, 3-[7-(3-Chloro-phenyl)-8-methoxy-1-methyl-2-oxo-2,3-dihydro-1H-benzo[e][1,4]diazepin-5-yl]-benzonitrile]
  inhibition at 10 µM: 96%

## COc1cc2c(cc1-c1ccc(Cl)cc1)C(c1cccc(C#N)c1)=NCC(=O)N2C [Example 7, 3-[7-(4-Chloro-phenyl)-8-methoxy-1-methyl-2-oxo-2,3-dihydro-1H-benzo[e][1,4]diazepin-5-yl]-benzonitrile]
  inhibition at 10 µM: 91%

## COc1cc2c(cc1-c1ccco1)C(c1cccc(C#N)c1)=NCC(=O)N2C [Example 8, 3-(7-Furan-2-yl-8-methoxy-1-methyl-2-oxo-2,3-dihydro-1H-benzo[e][1,4]diazepin-5-yl)-benzonitrile]
Table 1, 10 μM test compound
  inhibition at 10 µM: 47%

## CN1C(=O)CN=C(c2cccc(C=O)c2)c2cc(-c3ccccc3)ccc21 [Example 9, 3-(1-Methyl-2-oxo-7-phenyl-2,3-dihydro-1H-benzo[e][1,4]diazepin-5-yl)-benzaldehyde]
Table 1, 10 μM test compound
  inhibition at 10 µM: 84%

## COc1ccccc1-c1cc2c(cc1OC)NC(=O)CN=C2c1cccc(C#N)c1 [Example 10, 3-[8-Methoxy-7-(2-methoxy-phenyl)-2-oxo-2,3-dihydro-1H-benzo[e][1,4]diazepin-5-yl]-benzonitrile]
Table 1, 10 μM test compound
  inhibition at 10 µM: 94%

## CN1C(=O)CN=C(c2cccc(C#N)c2)c2cc(-c3ccccc3)ccc21 [Example 11, 3-(1-Methyl-2-oxo-7-phenyl-2,3-dihydro-1H-benzo[e][1,4]diazepin-5-yl)-benzonitrile]
  inhibition at 10 µM: 79%

## COc1ccccc1-c1ccc2c(c1)C(c1cccc(C#N)c1)=NCC(=O)N2C [Example 12, 3-[7-(2-Methoxy-phenyl)-1-methyl-2-oxo-2,3-dihydro-1H-benzo[e][1,4]diazepin-5-yl]-benzonitrile]
Table 1, 10 μM test compound
  inhibition at 10 µM: 40%

## COc1cccc(-c2ccc3c(c2)C(c2cccc(C#N)c2)=NCC(=O)N3C)c1 [Example 13, 3-[7-(3-Methoxy-phenyl)-1-methyl-2-oxo-2,3-dihydro-1H-benzo[e][1,4]diazepin-5-yl]-benzonitrile]
Table 1, 10 μM test compound
  inhibition at 10 µM: 91%

## COc1ccc(-c2ccc3c(c2)C(c2cccc(C#N)c2)=NCC(=O)N3C)cc1 [Example 14, 3-[7-(4-Methoxy-phenyl)-1-methyl-2-oxo-2,3-dihydro-1H-benzo[e][1,4]diazepin-5-yl]-benzonitrile]
Table 1, 10 μM test compound
  inhibition at 10 µM: 92%

## COc1ccc(OC)c(-c2ccc3c(c2)C(c2cccc(C#N)c2)=NCC(=O)N3C)c1 [Example 15, 3-[7-(2,5-Dimethoxy-phenyl)-1-methyl-2-oxo-2,3-dihydro-1H-benzo[e][1,4]diazepin-5-yl]-benzonitrile]
  inhibition at 10 µM: 98%
